{"source": "patent US20250376458A1", "about": "“COMPOUNDS AND METHODS FOR YAP/TEAD MODULATION AND INDICATIONS THEREFOR” (OPNA BIO SA, priority 2023, published 2025)", "data": [{"system": "TEAD-dependent transcription", "experiment": "TEAD-dependent transcription cell-based luciferase reporter assay (MSTO-211H+12XGTIIC)", "design": "species or system human", "details": "Homo sapiens, MSTO-211H, 24 h, MSTO-211H+12XGTIIC cell line, 24 hours compound incubation, luminescence normalized to cell viability fluorescence signal; read-out: MSTO-211H GMean IC50 (uM) Cell Assay Reporter Cell Variant: TEAD", "description": "(§1) Determine Inhibitor Activity Against TEAD-Dependent Transcription in a Cell-Based Reporter Assay\n(§2) The human mesothelioma cell line MSTO-211H was stably transfected with a pGL4.21 plasmid containing a synthetic promoter with 12 copies of the GTIIC TEAD response element that drives the expression of a luciferase reporter gene i using Lipofectamine transfection reagent (Thermo Fisher). Transfected cells were selected using puromycin and single cell clones expressing this construct (referred to as MSTO-211H+12XGTIIC) were generated by limiting dilution. MSTO-211H cells was characterized by genetic alterations in key components of the Hippo pathway^2, resulting in up-regulation of YAP/TEAD-mediated transcription. […] To evaluate TEAD inhibitors, the MSTO-211H+12XGTIIC cell line was seeded in a 96-well plate in 50 μL of culture media at 1×10^4 cells per well and incubated at 37° C. overnight. Serial dilutions of compounds (in total volume of 50 μL of culture media) were added to the cells and incubated at 37° C. for 24 hours. Each plate included cells treated with DMSO as high controls and cells treated with 20 μM of the reference compound K-975 (a known TEAD inhibitor)^3 as low controls. Cell viability was assayed by the addition of 25 μL of CellTiter-Fluor reagent (Promega) followed by a 30-minute incubation at 37° C. and quantification of the fluorescence signal (Ex400/Em505). Subsequently, luciferase expression was assayed by the addition of 25 μL of ONE-Glo reagent (Promega) followed by a 10-minute incubation at room temperature and quantification of the luminescence signal. The luminescence signal was normalized to the fluorescence signal to correct for any loss in cell viability over the 24-hour compound incubation period. The percentage of inhibition of normalized luminescence signal, indicative of compound-mediated inhibition of TEAD-dependent transcription, at individual compound concentrations relative to high and low controls was calculated. The data were analyzed by using nonlinear regression to generate IC50 values for individual compounds.", "units": {"IC50": "µM"}, "values": [{"smiles": "CNS(=O)(=O)c1nc(C(=O)N2CCc3cc(Oc4ccc(C(F)(F)F)cc4)ccc3C2)c[nH]1", "note": "[O-0111, N-methyl-4-(6-(4-(trifluoromethyl)phenoxy)-1,2,3,4-tetrahydroisoquinoline-2-carbonyl)-1H-imidazole-2-sulfonamide]", "IC50": "0.001 to 10"}, {"smiles": "CS(=O)(=O)c1nc(C(=O)N2CCc3c(cccc3OC3CCC(F)(F)CC3)C2)c[nH]1", "note": "[O-0112, (5-((4,4-difluorocyclohexyl)oxy)-3,4-dihydroisoquinolin-2(1H)-yl)(2-(methylsulfonyl)-1H-imidazol-4-yl)methanone]", "IC50": "0.001 to 10"}, {"smiles": "CCS(=O)(=O)c1nc(C(=O)N2CCc3c(ncnc3Oc3ccc(C(F)(F)F)c(F)c3)C2)c[nH]1", "note": "[O-0113, (2-(ethylsulfonyl)-1H-imidazol-4-yl)(4-(3-fluoro-4-(trifluoromethyl)phenoxy)-5,8-dihydropyrido[3,4-d]pyrimidin-7(6H)-yl)methanone]", "IC50": "0.001 to 10"}, {"smiles": "CS(=O)(=O)c1nc(C(=O)N2CCc3c(cccc3Oc3ccc(C(F)(F)F)c(F)c3)C2)c[nH]1", "note": "[O-0114, (5-(3-fluoro-4-(trifluoromethyl)phenoxy)-3,4-dihydroisoquinolin-2(1H)-yl)(2-(methylsulfonyl)-1H-imidazol-4-yl)methanone]", "IC50": "0.001 to 10"}, {"smiles": "CS(=O)(=O)c1nc(C(=O)N2CCc3c(cccc3Oc3ccc(C(F)(F)F)cc3F)C2)c[nH]1", "note": "[O-0118, (5-(2-fluoro-4-(trifluoromethyl)phenoxy)-3,4-dihydroisoquinolin-2(1H)-yl)(2-(methylsulfonyl)-1H-imidazol-4-yl)methanone]", "IC50": "0.001 to 10"}, {"smiles": "CS(=O)(=O)c1nc(C(=O)N2CCc3c(ncnc3Oc3ccc(C(F)(F)F)cc3F)C2)c[nH]1", "note": "[O-0120, (4-(2-fluoro-4-(trifluoromethyl)phenoxy)-5,8-dihydropyrido[3,4-d]pyrimidin-7(6H)-yl)(2-(methylsulfonyl)-1H-imidazol-4-yl)methanone]", "IC50": "0.001 to 10"}, {"smiles": "CS(=O)(=O)c1ncc(C(=O)N2CCc3ccc(Oc4ccc(C(F)(F)F)c(F)c4)cc3C2)[nH]1", "note": "[O-0123, (7-(3-fluoro-4-(trifluoromethyl)phenoxy)-3,4-dihydroisoquinolin-2(1H)-yl)(2-(methylsulfonyl)-1H-imidazol-5-yl)methanone]", "IC50": "10 to 100"}, {"smiles": "CS(=O)(=O)c1nc(C(=O)N2CCc3c(cccc3NC3CCC(F)(F)CC3)C2)c[nH]1", "note": "[O-0124, (5-((4,4-difluorocyclohexyl)amino)-3,4-dihydroisoquinolin-2(1H)-yl)(2-(methylsulfonyl)-1H-imidazol-4-yl)methanone]", "IC50": "> 100"}, {"smiles": "O=C(c1c[nH]c(S(=O)(=O)C2CCC2)n1)N1CCc2c(cccc2Oc2ccc(C(F)(F)F)cc2)C1", "note": "[O-0125, (2-(cyclobutylsulfonyl)-1H-imidazol-4-yl)(5-(4-(trifluoromethyl)phenoxy)-3,4-dihydroisoquinolin-2(1H)-yl)methanone]", "IC50": "0.001 to 10"}, {"smiles": "O=C(c1c[nH]c(S(=O)(=O)C2CCC2)n1)N1CCc2c(cccc2Nc2ccc(C(F)(F)F)cc2)C1", "note": "[O-0126, (2-(cyclobutylsulfonyl)-1H-imidazol-4-yl)(5-((4-(trifluoromethyl)phenyl)amino)-3,4-dihydroisoquinolin-2(1H)-yl)methanone]", "IC50": "0.001 to 10"}, {"smiles": "CCS(=O)(=O)c1nc(C(=O)N2CCc3c(ncnc3Oc3ccc(C(F)(F)F)cc3)C2)c[nH]1", "note": "[O-0130, (2-(ethylsulfonyl)-1H-imidazol-4-yl)(4-(4-(trifluoromethyl)phenoxy)-5,8-dihydropyrido[3,4-d]pyrimidin-7(6H)-yl)methanone]", "IC50": "10 to 100"}]}, {"system": "TEAD-dependent transcription", "experiment": "TEAD-dependent transcription cell-based luciferase reporter assay (MSTO-211H+12XGTIIC)", "design": "species or system human", "details": "MSTO-211H+12XGTIIC cell line, 24 hours compound incubation, luminescence normalized to cell viability fluorescence signal; read-out: MSTO-211H GMean IC50 (uM) Cell Assay Reporter Cell Variant: TEAD", "description": "as §1, §2", "units": {"IC50": "µM"}, "values": [{"smiles": "CS(=O)(=O)c1nc(C(=O)N2CCc3c(ncnc3Oc3ccc(C(F)(F)F)c(F)c3)C2)c[nH]1", "note": "[O-0115, (4-(3-fluoro-4-(trifluoromethyl)phenoxy)-5,8-dihydropyrido[3,4-d]pyrimidin-7(6H)-yl)(2-(methylsulfonyl)-1H-imidazol-4-yl)methanone]", "IC50": "0.001 to 10"}, {"smiles": "CCS(=O)(=O)c1nc(C(=O)N2CCc3c(ncnc3Oc3ccc(C(F)(F)F)cc3F)C2)c[nH]1", "note": "[O-0116, (2-(ethylsulfonyl)-1H-imidazol-4-yl)(4-(2-fluoro-4-(trifluoromethyl)phenoxy)-5,8-dihydropyrido[3,4-d]pyrimidin-7(6H)-yl)methanone]", "IC50": "0.001 to 10"}, {"smiles": "CS(=O)(=O)c1nc(C(=O)N2CCc3c(ncnc3Oc3ccc(C(F)(F)F)cc3)C2)c[nH]1", "note": "[O-0119, (2-(methylsulfonyl)-1H-imidazol-4-yl)(4-(4-(trifluoromethyl)phenoxy)-5,8-dihydropyrido[3,4-d]pyrimidin-7(6H)-yl)methanone]", "IC50": "0.001 to 10"}, {"smiles": "CS(=O)(=O)c1nc(C(=O)N2CCc3ccc(Nc4ccc(C(F)(F)F)c(F)c4)cc3C2)c[nH]1", "note": "[O-0121, (7-((3-fluoro-4-(trifluoromethyl)phenyl)amino)-3,4-dihydroisoquinolin-2(1H)-yl)(2-(methylsulfonyl)-1H-imidazol-4-yl)methanone]", "IC50": "0.001 to 10"}, {"smiles": "CS(=O)(=O)c1nc(C(=O)N2CCc3c(ncnc3Oc3ccc(C(F)(F)F)c(F)c3)C2)c[nH]1", "note": "[O-0128, (4-(3-fluoro-4-(trifluoromethyl)phenoxy)-5,8-dihydropyrido[3,4-d]pyrimidin-7(6H)-yl)(2-(methylsulfonyl)-1H-imidazol-4-yl)methanone]", "IC50": "10 to 100"}, {"smiles": "CCS(=O)(=O)c1nc(C(=O)N2CCc3c(ncnc3Oc3ccc(C(F)(F)F)cc3F)C2)c[nH]1", "note": "[O-0129, (2-(ethylsulfonyl)-1H-imidazol-4-yl)(4-(2-fluoro-4-(trifluoromethyl)phenoxy)-5,8-dihydropyrido[3,4-d]pyrimidin-7(6H)-yl)methanone]", "IC50": "10 to 100"}, {"smiles": "CS(=O)(=O)c1nc(C(=O)N2CCc3c(ncnc3Oc3ccc(C(F)(F)F)cc3)C2)c[nH]1", "note": "[O-0131, (2-(methylsulfonyl)-1H-imidazol-4-yl)(4-(4-(trifluoromethyl)phenoxy)-5,8-dihydropyrido[3,4-d]pyrimidin-7(6H)-yl)methanone]", "IC50": "10 to 100"}]}]}
